In brackets after ≈: the same amount, converted by molar mass.
Assays:
Pseudomonas aeruginosa = assay: Antibacterial activity against Pseudomonas aeruginosa after 18 hrs by macrodilution method; format: functional
Bacillus subtilis = assay: Antibacterial activity against Bacillus subtilis after 18 hrs by macrodilution method; format: functional
Staphylococcus aureus [1] = assay: Antibacterial activity against Staphylococcus aureus after 18 hrs by macrodilution method; format: functional
Staphylococcus aureus [2] = assay: Antibacterial activity against Staphylococcus aureus; format: functional, organism-based

MIC (Pseudomonas aeruginosa)	MIC (Bacillus subtilis)	MIC (Staphylococcus aureus [1])	IC50 (Staphylococcus aureus [2])	Structure (SMILES)
4 µg/mL (≈ 5.26 µM)	128 µg/mL (≈ 168 µM)	32 µg/mL (≈ 42 µM)		COC(=O)CC[C@@H](C)[C@H]1CC[C@H]2[C@@H]3C/C(=N/NC(=S)Nc4ccc(OC)cc4)[C@@H]4C/C(=N/NC(=S)Nc5ccc(OC)cc5)CC[C@]4(C)[C@H]3CC[C@]12C
16 µg/mL (≈ 26.6 µM)	32 µg/mL (≈ 53.2 µM)	> 128 µg/mL		COC(=O)CC[C@@H](C)[C@H]1CC[C@H]2[C@@H]3C(=O)C[C@@H]4C/C(=N/NC(=S)Nc5cccc6ccccc56)CC[C@]4(C)[C@H]3CC[C@]12C
2 µg/mL (≈ 3.17 µM)	> 128 µg/mL	> 128 µg/mL		COC(=O)CC[C@@H](C)[C@H]1CC[C@H]2[C@@H]3CC[C@@H]4C/C(=N/NC(=S)Nc5ccc(Br)cc5)CC[C@]4(C)[C@H]3CC(=O)[C@]12C
128 µg/mL (≈ 225 µM)	128 µg/mL (≈ 225 µM)	128 µg/mL (≈ 225 µM)		COC(=O)CC[C@@H](C)[C@H]1CC[C@H]2[C@@H]3C(=O)C[C@@H]4C/C(=N/NC(=S)Nc5ccc(F)cc5)CC[C@]4(C)[C@H]3CC[C@]12C
2 µg/mL (≈ 3.44 µM)	> 128 µg/mL	> 128 µg/mL		COC(=O)CC[C@@H](C)[C@H]1CC[C@H]2[C@@H]3CC[C@@H]4C/C(=N/NC(=S)Nc5ccc(OC)cc5)CC[C@]4(C)[C@H]3CC(=O)[C@]12C
4 µg/mL (≈ 7.02 µM)	> 128 µg/mL	> 128 µg/mL		COC(=O)CC[C@@H](C)[C@H]1CC[C@H]2[C@@H]3CC[C@@H]4C/C(=N/NC(=S)Nc5ccc(F)cc5)CC[C@]4(C)[C@H]3CC(=O)[C@]12C
8 µg/mL (≈ 11.4 µM)	128 µg/mL (≈ 183 µM)	> 128 µg/mL		COC(=O)CC[C@@H](C)[C@H]1CC[C@H]2[C@@H]3/C(=N/NC(=S)Nc4ccccc4)C[C@@H]4C/C(=N/NC(=S)Nc5ccccc5)CC[C@]4(C)[C@H]3CC[C@]12C
4 µg/mL (≈ 5.26 µM)	> 128 µg/mL	64 µg/mL (≈ 84.1 µM)	3.25 µg/mL (≈ 4.27 µM)	COC(=O)CC[C@@H](C)[C@H]1CC[C@H]2[C@@H]3/C(=N/NC(=S)Nc4ccc(OC)cc4)C[C@@H]4C/C(=N/NC(=S)Nc5ccc(OC)cc5)CC[C@]4(C)[C@H]3CC[C@]12C
16 µg/mL (≈ 28.3 µM)	32 µg/mL (≈ 56.6 µM)	> 128 µg/mL		COC(=O)CC[C@@H](C)[C@H]1CC[C@H]2[C@@H]3C(=O)C[C@@H]4C/C(=N/NC(=S)Nc5ccc(C)cc5)CC[C@]4(C)[C@H]3CC[C@]12C
2 µg/mL (≈ 2.33 µM)	128 µg/mL (≈ 149 µM)	64 µg/mL (≈ 74.5 µM)		COC(=O)CC[C@@H](C)[C@H]1CC[C@H]2[C@@H]3C/C(=N/NC(=S)Nc4ccc(Br)cc4)[C@@H]4C/C(=N/NC(=S)Nc5ccc(Br)cc5)CC[C@]4(C)[C@H]3CC[C@]12C
128 µg/mL (≈ 174 µM)	128 µg/mL (≈ 174 µM)	32 µg/mL (≈ 43.4 µM)		COC(=O)CC[C@@H](C)[C@H]1CC[C@H]2[C@@H]3C/C(=N/NC(=S)Nc4cccc(F)c4)[C@@H]4C/C(=N/NC(=S)Nc5cccc(F)c5)CC[C@]4(C)[C@H]3CC[C@]12C
128 µg/mL (≈ 220 µM)	32 µg/mL (≈ 55 µM)	128 µg/mL (≈ 220 µM)		COC(=O)CC[C@@H](C)[C@H]1CC[C@H]2[C@@H]3C(=O)C[C@@H]4C/C(=N/NC(=S)Nc5ccc(OC)cc5)CC[C@]4(C)[C@H]3CC[C@]12C
32 µg/mL (≈ 58 µM)	64 µg/mL (≈ 116 µM)	> 128 µg/mL		COC(=O)CC[C@@H](C)[C@H]1CC[C@H]2[C@@H]3CC[C@@H]4C/C(=N/NC(=S)Nc5ccccc5)CC[C@]4(C)[C@H]3CC(=O)[C@]12C
32 µg/mL (≈ 43.4 µM)	8 µg/mL (≈ 10.9 µM)	8 µg/mL (≈ 10.9 µM)	1.02 µg/mL (≈ 1.38 µM)	COC(=O)CC[C@@H](C)[C@H]1CC[C@H]2[C@@H]3/C(=N/NC(=S)Nc4cccc(F)c4)C[C@@H]4C/C(=N/NC(=S)Nc5cccc(F)c5)CC[C@]4(C)[C@H]3CC[C@]12C
16 µg/mL (≈ 18.6 µM)	> 128 µg/mL	32 µg/mL (≈ 37.3 µM)	2.85 µg/mL (≈ 3.32 µM)	COC(=O)CC[C@@H](C)[C@H]1CC[C@H]2[C@@H]3/C(=N/NC(=S)Nc4ccc(Br)cc4)C[C@@H]4C/C(=N/NC(=S)Nc5ccc(Br)cc5)CC[C@]4(C)[C@H]3CC[C@]12C
4 µg/mL (≈ 5.49 µM)	128 µg/mL (≈ 176 µM)	128 µg/mL (≈ 176 µM)		COC(=O)CC[C@@H](C)[C@H]1CC[C@H]2[C@@H]3C/C(=N/NC(=S)Nc4ccc(C)cc4)[C@@H]4C/C(=N/NC(=S)Nc5ccc(C)cc5)CC[C@]4(C)[C@H]3CC[C@]12C

Structure (SMILES)	MIC (Pseudomonas aeruginosa)	MIC (Bacillus subtilis)	MIC (Staphylococcus aureus [1])	IC50 (Staphylococcus aureus [2])
CC1(C)S[C@@H]2[C@H](NC(=O)[C@H](N)c3ccc(O)cc3)C(=O)N2[C@H]1C(=O)O [AMOXICILLIN]	2 µg/mL (≈ 5.47 µM)	16 µg/mL (≈ 43.8 µM)	32 µg/mL (≈ 87.6 µM)	2.84 µg/mL (≈ 7.77 µM)
